Assay results from ChEMBL document CHEMBL1926617, “Antifungal activities of novel non-azole molecules against S. cerevisiae and C. albicans” (Eur J Med Chem, 2012).
Converted amounts (≈) assume the structure as drawn. The source made the active and inactive calls. The calls are words filed in the database; no cut-off is given here.

Tests used:
Saccharomyces cerevisiae [1] = assay: Antifungal activity against Saccharomyces cerevisiae ATCC 24657 assessed as growth inhibition after 24 to 48 hrs by agar plate bioassay; assay type: functional
Saccharomyces cerevisiae [2] = assay: Antifungal activity against Saccharomyces cerevisiae ATCC 24657 assessed as growth inhibition after 24 to 48 hrs by spectrophotometric bioassay; assay type: functional
Candida albicans [3] = assay: Antifungal activity against Candida albicans ATCC 32032 assessed as growth inhibition after 24 to 48 hrs by agar plate bioassay; assay type: functional
Cytochrome P450 1A2 = target: T1, Cytochrome P450 1A2 (Homo sapiens, UniProt P05177); assay: Inhibition of human recombinant CYP1A2; assay type: ADME
T1 sequence (P05177 whole entry): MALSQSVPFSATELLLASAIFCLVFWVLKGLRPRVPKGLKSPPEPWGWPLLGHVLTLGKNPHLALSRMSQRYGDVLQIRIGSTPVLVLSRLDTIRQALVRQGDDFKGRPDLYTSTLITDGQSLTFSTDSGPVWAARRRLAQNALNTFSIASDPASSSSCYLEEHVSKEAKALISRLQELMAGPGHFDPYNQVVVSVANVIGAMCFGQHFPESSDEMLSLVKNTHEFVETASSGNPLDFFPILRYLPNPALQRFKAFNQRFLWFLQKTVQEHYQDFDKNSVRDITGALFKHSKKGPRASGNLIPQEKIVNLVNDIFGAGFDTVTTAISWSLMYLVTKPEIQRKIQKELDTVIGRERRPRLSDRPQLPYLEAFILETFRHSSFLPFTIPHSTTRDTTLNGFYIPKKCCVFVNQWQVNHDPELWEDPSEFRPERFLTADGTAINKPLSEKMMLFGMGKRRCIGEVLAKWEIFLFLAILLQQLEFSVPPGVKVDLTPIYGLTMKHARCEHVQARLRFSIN

Cytochrome P450 2C9 = Cytochrome P450 2C9 (Homo sapiens, UniProt P11712); assay: Inhibition of human recombinant CYP2C9; assay type: ADME
Sequence of Cytochrome P450 2C9 (P11712 whole entry): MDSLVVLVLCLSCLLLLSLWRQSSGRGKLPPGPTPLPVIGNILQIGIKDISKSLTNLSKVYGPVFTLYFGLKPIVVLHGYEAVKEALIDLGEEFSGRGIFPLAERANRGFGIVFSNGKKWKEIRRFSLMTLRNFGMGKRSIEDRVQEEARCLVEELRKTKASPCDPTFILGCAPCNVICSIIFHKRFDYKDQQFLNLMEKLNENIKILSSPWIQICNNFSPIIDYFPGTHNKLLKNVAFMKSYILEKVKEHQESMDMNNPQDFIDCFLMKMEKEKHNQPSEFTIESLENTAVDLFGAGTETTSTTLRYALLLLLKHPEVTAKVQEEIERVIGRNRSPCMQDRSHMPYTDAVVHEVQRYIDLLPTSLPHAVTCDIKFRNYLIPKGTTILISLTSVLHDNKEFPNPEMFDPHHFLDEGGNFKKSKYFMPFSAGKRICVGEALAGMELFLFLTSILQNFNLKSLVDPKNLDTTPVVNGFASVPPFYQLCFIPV

Cytochrome P450 2C19 = Cytochrome P450 2C19 (Homo sapiens, UniProt P33261); assay: Inhibition of human recombinant CYP2C19; assay type: ADME
Sequence of Cytochrome P450 2C19 (P33261 whole entry): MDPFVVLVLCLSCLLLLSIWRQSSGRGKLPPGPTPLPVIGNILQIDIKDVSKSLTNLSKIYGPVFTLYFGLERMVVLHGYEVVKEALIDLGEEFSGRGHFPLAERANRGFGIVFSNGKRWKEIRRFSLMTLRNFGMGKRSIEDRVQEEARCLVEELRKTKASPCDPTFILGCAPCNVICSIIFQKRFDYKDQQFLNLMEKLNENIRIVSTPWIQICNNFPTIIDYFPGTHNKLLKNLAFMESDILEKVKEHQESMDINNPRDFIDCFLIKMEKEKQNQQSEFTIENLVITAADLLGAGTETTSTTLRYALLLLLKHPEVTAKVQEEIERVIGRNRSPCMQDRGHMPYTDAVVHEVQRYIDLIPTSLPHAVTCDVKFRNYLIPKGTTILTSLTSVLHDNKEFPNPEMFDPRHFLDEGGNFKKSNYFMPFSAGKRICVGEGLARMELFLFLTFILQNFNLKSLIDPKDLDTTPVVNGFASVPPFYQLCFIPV

Cytochrome P450 2D6 = Cytochrome P450 2D6 (Homo sapiens, UniProt P10635); assay: Inhibition of human recombinant CYP2D6; assay type: ADME
Sequence of Cytochrome P450 2D6 (P10635 whole entry): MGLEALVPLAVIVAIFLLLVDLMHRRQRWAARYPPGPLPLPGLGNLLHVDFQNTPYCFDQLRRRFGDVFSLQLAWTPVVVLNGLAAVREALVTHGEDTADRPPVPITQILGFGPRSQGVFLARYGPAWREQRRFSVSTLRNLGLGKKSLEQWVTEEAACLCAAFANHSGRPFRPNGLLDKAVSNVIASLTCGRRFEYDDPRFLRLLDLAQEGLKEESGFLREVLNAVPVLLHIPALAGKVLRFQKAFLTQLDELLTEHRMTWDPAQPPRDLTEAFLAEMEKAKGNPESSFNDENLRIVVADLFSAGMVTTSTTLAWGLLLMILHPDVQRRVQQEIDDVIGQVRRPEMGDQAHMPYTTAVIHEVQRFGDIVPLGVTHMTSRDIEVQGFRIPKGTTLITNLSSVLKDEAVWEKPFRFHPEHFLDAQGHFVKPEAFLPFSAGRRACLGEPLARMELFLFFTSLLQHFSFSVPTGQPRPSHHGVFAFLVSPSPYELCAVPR

Cytochrome P450 3A4 = Cytochrome P450 3A4 (Homo sapiens, UniProt P08684); assay: Inhibition of human recombinant CYP3A4; assay type: ADME
Sequence of Cytochrome P450 3A4 (P08684 whole entry): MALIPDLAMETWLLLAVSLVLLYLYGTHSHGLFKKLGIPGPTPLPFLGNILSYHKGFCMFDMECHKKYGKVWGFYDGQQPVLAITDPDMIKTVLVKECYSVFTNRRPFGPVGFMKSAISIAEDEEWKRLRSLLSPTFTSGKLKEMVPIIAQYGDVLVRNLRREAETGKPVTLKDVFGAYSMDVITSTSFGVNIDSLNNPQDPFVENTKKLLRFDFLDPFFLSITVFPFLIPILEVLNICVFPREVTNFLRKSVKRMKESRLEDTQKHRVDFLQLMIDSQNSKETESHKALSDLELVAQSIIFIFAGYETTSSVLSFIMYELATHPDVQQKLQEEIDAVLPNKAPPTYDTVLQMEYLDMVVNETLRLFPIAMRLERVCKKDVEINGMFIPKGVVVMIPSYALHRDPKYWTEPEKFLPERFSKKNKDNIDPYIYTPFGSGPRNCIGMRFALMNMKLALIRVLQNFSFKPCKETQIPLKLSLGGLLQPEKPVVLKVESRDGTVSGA

Candida albicans [4] = assay: Antifungal activity against Candida albicans assessed as morphogenetic transformation after 3 hrs by phase-contrast microscopy; assay type: functional
Saccharomyces cerevisiae [5] = assay: Fungistatic activity against Saccharomyces cerevisiae ATCC 24657 assessed as cell proliferation compound after 24 to 48 hrs by spectrophotometric bioassay; assay type: functional, organism-based
Saccharomyces cerevisiae [6] = assay: Fungistatic activity against Saccharomyces cerevisiae ATCC 24657 assessed as cell proliferation compound after 24 to 48 hrs by agar plate bioassay; assay type: functional, organism-based

MIC (Saccharomyces cerevisiae [1]) [µM] | SMILES | other results
> 200 | COc1ccc(NC(=S)N/N=C/c2ccc(N(C)CCC#N)cc2)cc1 | –
> 200 | C=CCSc1ncccc1C1=NN(CC(=O)N(CCC(=O)OCC)Cc2ccco2)C(=O)C1 | –
> 200 | Cc1nc(SCc2c(F)cccc2Cl)c(C#N)c(C)c1Cc1c(F)cccc1Cl | –
> 200 | COc1ccc(C(=O)CCC(=O)N2CCC(c3nc(C(=O)Nc4ccc(O)c(C)c4C)cs3)CC2)cc1 | –
> 200 | Cc1cccc(C(=O)Nc2sc3c(c2C(N)=O)CCCC3)c1 | MIC50 (Saccharomyces cerevisiae [2]): 50 µM (≈ 15.7 µg/mL)
> 200 | Cc1n[nH]c(=O)c2noc(/C=C/c3ccsc3)c12 | –
> 200 | Cc1ccc(C(=O)N(C)Cc2ccco2)c(C2CCN(C(=O)c3cc(C)c(C)o3)CC2)n1 | –
> 200 | Cc1ccc(C(=O)N(C)Cc2ccco2)c(C2CCN(C(=O)c3cc4c(C)nn(C)c4s3)CC2)n1 | –
– | CC1CCc2c(sc(NC(=O)Sc3nnc(-c4ccc(Cl)cc4)n3-c3ccccc3)c2C#N)C1 (stereo unspecified) | MIC (Candida albicans [3]): > 100 µM
– | COc1ccc(-c2sc(/N=C/c3ccc(-c4ccccc4)cc3)c(C#N)c2C)cc1OC | MIC (Candida albicans [3]): 8 µM (≈ 3.51 µg/mL); IC50 (Cytochrome P450 1A2): 26 µM; IC50 (Cytochrome P450 2C9): 1400 nM; IC50 (Cytochrome P450 2C19): 2300 nM; IC50 (Cytochrome P450 2D6): > 100 µM; IC50 (Cytochrome P450 3A4): > 100 µM
> 200 | CCOC(=O)/C(C#N)=C/c1ccc(N(C)CCC#N)cc1 | –
– | CN(C/C=C/C#CC(C)(C)C)Cc1cccc2ccccc12 [TERBINAFINE] | MIC (Candida albicans [4]): 439 µM (≈ 128 µg/mL)
> 200 | CC[C@@H]1C(=O)OC[C@@H]1Cc1cncn1C [PILOCARPINE] | –
> 200 | CN(CCC#N)c1ccc(/C=N/c2ccc(C(=O)O)cc2)cc1 | –
– | COc1ccc(-c2sc(/N=C/c3cc(Br)cc(Br)c3O)c(C#N)c2C)cc1OC | MIC (Candida albicans [3]): > 100 µM
– | Cc1c(-c2ccccc2)sc(/N=C/c2cc(Cl)cc(Cl)c2O)c1C#N | MIC (Candida albicans [3]): 40 µM (≈ 15.5 µg/mL)
> 200 | c1ccc(Cc2ccncc2)cc1 | MIC50 (Saccharomyces cerevisiae [1]): 100 µM (≈ 16.9 µg/mL)
150 (≈ 30.6 µg/mL) | Clc1ccc(Cc2ccncc2)cc1 | MIC50 (Saccharomyces cerevisiae [1]): 18 µM (≈ 3.67 µg/mL)
> 200 | O=[N+]([O-])c1ccc(Cc2ccncc2)cc1 | MIC50 (Saccharomyces cerevisiae [1]): 120 µM (≈ 25.7 µg/mL)
> 200 | N#C/C(=C\c1ccc(C(F)(F)F)cc1)c1ccc(OCc2c(F)cccc2Cl)cc1 | –
> 200 | COC(=O)c1scc(C)c1NC(=O)c1ccc(C(C)(C)C)cc1 | –
> 200 | Cc1ccc(C(=O)N(C)Cc2ccco2)c(C2CCN(C(=O)c3cc(O)nc4ccccc34)CC2)n1 | –
> 200 | COc1nc2c(c(-c3ccc[nH]3)c1C#N)Cc1ccccc1-2 | –
> 200 | COC(C)(C)CCSc1nc2ccc(NC(=O)CCCC(=O)NCc3ccco3)cc2s1 | –
> 200 | N#CCN1CCN(c2nc3ccc(Cl)cc3s2)CC1 | MIC50 (Saccharomyces cerevisiae [1]): 27 µM (≈ 7.91 µg/mL)
120 (≈ 32.8 µg/mL) | Cc1nn(C)c(=O)c2noc(/C=C/c3ccsc3)c12 | MIC50 (Saccharomyces cerevisiae [1]): 35 µM (≈ 9.57 µg/mL); Activity (Saccharomyces cerevisiae [5]): inactive; Activity (Saccharomyces cerevisiae [6]): inactive
> 200 | C=CCn1c(SCC(=O)c2ccccc2)nc2sc3c(c2c1=O)CCC(C)C3 (stereo unspecified) | –

SMILES | MIC (Saccharomyces cerevisiae [1]) [µM] | other results
CN(CCC#N)c1ccc(C=C(C#N)C#N)cc1 | > 200 | –
